Data set [1] can be described thus: Molar extinction coefficient of curcumin analogs (UV-visible). Format: physicochemical. The settings on record: in M-1 cm-1 (unit assumed). An excerpt:
Each curcumin derivative is bioconjugated to create a biopolymer that can be used as an eco-friendly dye. For example, compounds 1b and 1d can be conveniently conjugated to the lysine residues of proteins, the azide and the alkyne derivatives can be attached to proteins via the ‘click’ bioconjugation reaction. Compounds 1c and 1e have the advantage that unlike most reactive groups which are used for bioconjugation, alkyne and azide groups are stable in aqueous media (Scheme 5). The absorbance and fluorescence properties of these dyes are similar to the parent molecule.
Reagent-grade solvents such as acetone and tetrahydrofuran were used without further purification. For High Performance Liquid Chromatography (HPLC), methylene chloride was used with Pure Solv™ solvent purification system. Curcumin was obtained from Acros-Organics. Copper acetate and sodium ascorbate were purchased from Sigma. Silica gel 60 F 254 plates for thin-layer chromatography (TLC) were purchased from Merck. Column chromatographic separations were carried out using silica gel (Fisher) with a particle size of 0.040-0.063 mm. Nuclear magnetic resonance (NMR) was recorded on Bruker Avance 600 (600 MHz) spectrometers. Mass spectra (ES-MS) were recorded on a LC/MS and Time Of Flight (TOF) mass spectrometer. U.V.-Visible spectra were recorded using a ChemStation Rev. A.10.01 from Agilent Technologies

Data set [2] concerns amyloid plaques. The settings on record: cited from earlier work.
For data set [3] the following is noted: unmodified curcumin, background statement; cited from earlier work.
The conditions of data set [4]: human subjects, doses as high as 8 g of curcumin per day; cited from earlier work.
Data set [5] concerns Oligodendroglioma cells. As to the kind of experiment: Apoptosis of Oligodendroglioma cells (DAPI staining). Format: cell-based. The settings on record: 50 micro molar. How it is done: The small molecule curcumin analogs including curcumin dimers, curcumin polymers and curcumin modified polymers, typical examples shown in Schemes 1-6 of the present invention can be used for the treatment of cancer. […] Oligodendroglioma cells were treated with 50 micro molar concentration of curcumin and asymmetric curcumin dimer stained with DAPPI presented.
Very limited cell death is seen in human fibroblasts, which serve as a benign control cell line. The percentage of apoptosis is lower at higher concentrations (100 μM and more) as compared to that at 20 μM and 50 μM for all the compounds including curcumin because at higher concentration curcumin and analogs of the invention cause HOG cell necrosis. This alternate pathway of cell killing has been established via DNA laddering studies.

As to `COc1cc(/C=C\C(=O)CC(=O)/C=C\c2ccc(OC(=O)CCCC(=O)NCCOCCOCCOCCOCCOCCOCCN=[N+]=[N-])c(OC)c2)ccc1O` [Compound 4, Mono-2-(2-(2-(2-(2-(2-(2-azidoethoxy)ethoxy)ethoxy)ethoxy)ethoxy)ethoxy)ethylcarbamoyl butanoate-Curcumin], in data set [1], the “Molar Extinction Coeffecient” value was determined as 26764.

Take `C#CCOc1ccc(C=CC(=O)CC(=O)C=Cc2ccc(O)c(OC)c2)cc1OC` [Compound 5, Mono-Propargyl Curcumin]: the “Molar Extinction Coeffecient” value in data set [1] was found to be 29510.

Take `COc1cc(/C=C\C(=O)CC(=O)/C=C\c2ccc(O)c(OC)c2)ccc1O` [Curcumin, (1Z,6Z)-1,7-bis(4-hydroxy-3-methoxyphenyl)hepta-1,6-diene 3,5-dione]: the “amyloid levels and plaque burden” value in data set [2] (fed to mice with advanced amyloid accumulation) was “reduced amyloid levels and plaque burden”. For the same compound, in data set [2] (injected, transgenic mouse model), the “blood-brain barrier crossing and plaque binding” value is “crosses the blood-brain barrier and binds amyloid plaques”. Also, in data set [1], the “Molar Extinction Coeffecient” value is on record as 50,000. The “water and plasma solubility” value in data set [3] is “poor water and plasma solubility”. Besides, in data set [4], the “average peak serum concentration” value is 652.5 ng/mL.

As for “(2-(2-(2-(2-(2-(2-(2-(4-methylene)-1H-1,2,3-triazol-1-yl)ethoxy)ethoxy)ethoxy)ethoxy)ethoxy)ethoxy)ethylcarbamoyl butanoate curcumin dimer [Compound 7]”, in data set [5], the “apoptosis characterized by nuclear condensation (DAPI staining)” value is on record as “Extensive apoptosis” and the “induction of apoptosis relative to parent compound curcumin” value is recorded as “superior in inducing apoptosis”.

The record behind these values is US9447023B2, “Curcumin and tetrahydrocurcumin derivatives” (Research Foundation of the City University of New York, priority 2006, dated 2016).
